“Also recorded” adds a separate entry of the source. Some results are limits rather than exact numbers.

The target in assay [1] is T1, ATX (Homo sapiens, UniProt Q13822). Particulars: for Inhibition Mechanism: FS-3 substrate.
Assay [2] deals with T1, ATX. The assay is described as follows: ATX inhibition assay with FS-3 substrate. Also noted: conditioned serum-free medium (CCM) from MDA-MB-435 cells as the source of ATX; endogenous in cells; host or cells: MDA-MB-435 cells (about 10x concentrated serum-free conditioned medium). Particulars: for % Response at 10 μM (FS-3): 10 μM compound, FS-3 hydrolysis normalized to vehicle control (low = strong inhibition), mean ± S.D.; for single dose response comparison by aromatic substituent and position: Table 2, same values as % Response at 10 μM; for inhibition at 10 µM: single dose 10 μM, % inhibition, read-out: inhibition of ATX-mediated hydrolysis of FS-3. Type of assay: biochemical.
Method: ATX inhibition was assayed using the substrate FS-3 (Echelon Biosciences, Inc., Salt Lake City, Utah, USA). The FS-3 assay used ˜10 times concentrated conditioned serum-free medium (CCM) from MDA-MB-435 cells as the source of ATX, while CCM comprised one-third of the total volume.
All assays were performed in 96-well plates with data read at 1 minute intervals by a Synergy2 system (BioTek, Winooski, Vt.). […] Results are shown at one hour, at which point all fluorescence and absorbance changes as a function of time were linear. All readings were normalized to vehicle control after subtraction of fluorescence in the absence of CCM. Data are shown as the mean±S.D. of at least three wells. All experiments were repeated at least twice and results are shown.

The target in assay [3] is T2, human NPP7 (Homo sapiens, UniProt Q6UWV6).
T2 construct: transfected with human NPP6ex^51 or human NPP7ex expression plasmids; made in house; host or cells: HEK293 cells, transient transfection, pcDNA3.1(+); conditioned medium concentrated about 10x (CCM)
T2 sequence (Q6UWV6 22-433 limits assumed): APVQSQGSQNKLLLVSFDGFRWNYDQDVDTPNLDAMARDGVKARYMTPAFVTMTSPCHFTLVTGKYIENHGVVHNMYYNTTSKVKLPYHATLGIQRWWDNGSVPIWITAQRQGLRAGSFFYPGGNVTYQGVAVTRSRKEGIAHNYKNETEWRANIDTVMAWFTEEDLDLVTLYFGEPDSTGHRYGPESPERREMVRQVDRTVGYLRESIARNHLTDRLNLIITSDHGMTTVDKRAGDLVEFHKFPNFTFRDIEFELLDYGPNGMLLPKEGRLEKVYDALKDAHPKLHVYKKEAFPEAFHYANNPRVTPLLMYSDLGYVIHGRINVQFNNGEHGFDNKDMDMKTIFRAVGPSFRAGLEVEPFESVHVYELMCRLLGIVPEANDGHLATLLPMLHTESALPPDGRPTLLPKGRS
The assay can be described thus: Determination of NPP7 inhibition (pNPPC substrate). The format is biochemical. As to conditions: 10 μM inhibitor. Here is the method: (§1) Inhibitor selectivity was assayed using p-nitrophenylphosphoryl-choline (pNPPC) (Sigma-Aldrich, St. Louis, Mo.) as substrate for NPP6 and NPP7. The final volume (60 μL) included 20 μL (CM, NPP6 or CCM, NPP7, 20 μL inhibitor (10 μM including 1% DMSO) in assay buffer, and 20 μL pNPPC (10 mM, NPP6 or 1 NPP7) in assay buffer. NPP6 assay buffer contained 500 mM NaCl, 0.05% Triton X-100, 100 mM Tris-HCl (pH 9.0), whereas NPP7 assay buffer was comprised of 50 mM Tris HCl, pH 8.5, 150 mM NaCl, and 10 mM taurocholic acid. However, unlike the published methods, EDTA was not added to the NPP7 assay buffer. All assays were performed in 96-well, half area plates (Corning Inc., Lowell, Mass.) at 37° C. with data collected at 2 minute intervals using a Synergy2 absorbance plate reader (BioTek, Winooski, Vt.). Results are shown at the one hour time point, when all absorbance changes as a function of time were linear. Readings were normalized to vehicle control after subtraction of absorbance in the absence of CM or CCM. Data are shown as the mean±S.D. of at least three wells. All experiments were repeated twice and representative results are shown.
(§2) Assays were performed with CM or CCM from HEK293 cells transiently transfected with NPP6 and 7 expression plasmids, respectively. HEK293 cells were seeded in Dulbecco's modified Eagle's medium (DMEM) containing 10% fetal bovine serum, 100 U/ml penicillin, 100 μg/ml streptomycin (Hyclone, Logan, Utah), and 2 mM L-glutamine. HEK293 cells were grown overnight at 37° C. under 5% CO2 to 80% confluence. The cells were then transfected with human NPP6ex^51 or human NPP7ex expression plasmids in the pcDNA3.1(+) mammalian vector in the presence of Polyfect Transfection Reagent (Hyclone, Logan, Utah). Six hours after transfection, the culture medium was changed to serum free DMEM containing L-glutamine and cells were incubated for 48 hours. Expressed protein was collected (NPP6 and NPP7) and concentrated ˜10×(NPP7) using 10 kDa molecular weight cutoff filters (Millipore, Beverly, Mass.) in an Amicon pressure cell (Millipore, Beverly, Mass.).

The target of assay [4] is T3, human NPP6 (Homo sapiens, UniProt Q6UWR7).
T3 construct: transfected with human NPP6ex^51 or human NPP7ex expression plasmids; made in house; host or cells: HEK293 cells, transient transfection, pcDNA3.1(+); unconcentrated conditioned medium (CM)
T3 sequence (Q6UWR7 23-419 limits assumed): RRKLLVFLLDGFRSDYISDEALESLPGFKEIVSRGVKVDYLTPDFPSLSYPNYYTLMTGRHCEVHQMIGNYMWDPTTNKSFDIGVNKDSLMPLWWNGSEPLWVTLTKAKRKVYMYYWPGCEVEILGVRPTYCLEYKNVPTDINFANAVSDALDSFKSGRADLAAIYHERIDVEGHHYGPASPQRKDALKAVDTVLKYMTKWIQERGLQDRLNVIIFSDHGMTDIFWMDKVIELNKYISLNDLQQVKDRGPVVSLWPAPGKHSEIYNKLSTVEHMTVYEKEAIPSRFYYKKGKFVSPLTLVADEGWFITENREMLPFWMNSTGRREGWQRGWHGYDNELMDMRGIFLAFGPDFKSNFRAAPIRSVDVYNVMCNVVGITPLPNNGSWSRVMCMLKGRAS
The assay is described as follows: Determination of NPP6 inhibition (pNPPC substrate). Type of assay: biochemical. As to conditions: 10 μM inhibitor. Here is the method:
as §1, §2

The test system of assay [5] is A2058 cells. The assay can be described thus: A2058 cell migration (scratch closure). As to conditions: 30 μM inhibitor, 48 hours; for ATX-stimulated cell migration: ATX 100 ng/ml; for LPC+ATX-stimulated cell migration: LPC 18:1 10 μM + ATX 100 ng/ml; for LPC-stimulated cell migration: LPC 18:1 10 μM. Type of assay: cell-based. Here is the method: A2058 cells were seeded in 96-well plates at a density of 50,000 cells per well in complete growth medium (DMEM+10% FBS+penicillin/streptomycin+L-glutamine). Cells were allowed to equilibrate for 24 hours at 37° C. with 5% CO2. Cells were then serum-deprived for 24 hours in DMEM+0.1% BSA+penicillin/streptomycin+L-glutamine (serum-free medium). […] The width of the injury was measured at T0, 4 hours (data not shown), 24 hours (data not shown), and 48 hours (shown above) after injury/treatment using the 10× objective of the phase-contrast microscope and the Micron USB software package. Data represent mean percent closure±SD. n=3 for each experiment. […] However, these reductions were also not statistically significant.

Assay [6] has as its target T1, ATX. The assay is described as follows: biochemical.
Setting [7] is: Ki (μM), FS-3 substrate, for mixed mode Ki=IC50 assumed.

In general, inhibition refers to the drop in the measured response relative to a control, in per cent. As for `CCn1cc(C(=O)O)c(=O)c2cnc(N3CCN(C(=S)Nc4cccc(Cl)c4)CC3)nc21` [Compound 14, 2-(4-{[(3-chlorophenyl)amino]carbonothioyl}-1-piperazinyl)-8-ethyl-5-oxo-5,8-dihydropyrido[2,3-d]pyrimidine-6-carboxylic acid], in assay [1], the “mechanism of ATX inhibition” value is “mixed-mode” and the “Inhibition Mechanism” value was “Mixed”. Also, in assay [2], the “% Response at 10 μM (FS-3)” value is reported as 9.7 ± 0.9%; the “single dose response comparison by aromatic substituent and position” value (shortened to “single dose response comparison”) stood at 9.7 ± 0.9; the inhibition at 10 µM is at least 50%. Also, in assay [3], the “effect on activity of NPP7” value is given as “None of the compounds affected the activity”. The “effect on activity of NPP6” value in assay [4] is “None of the compounds affected the activity”. In addition, in assay [5], the ATX-stimulated cell migration entry is on record as “appeared to decrease”, the “LPC+ATX-stimulated cell migration” value is “appeared to decrease” and the LPC-stimulated cell migration result was “appeared to decrease”.

Usually Ki stands for the equilibrium dissociation constant of an inhibitor or competing ligand from its target. Lower therefore signals tighter binding. What is called IC50 is the concentration at which inhibition is half-maximal. In the case of `CCn1cc(C(=O)O)c(=O)c2cnc(N3CCN(C(=S)Nc4cc(C(F)(F)F)cc(C(F)(F)F)c4)CC3)nc21` [Compound 18, 2-(4-{[(3,5-bis(trifluoromethyl)phenyl)amino]carbonothioyl}-1-piperazinyl)-8-ethyl-5-oxo-5,8-dihydropyrido[2,3-d]pyrimidine-6-carboxylic acid], in assay [6] (Ki), the Ki was 160 nM. The compound further had an inhibitory constant (Ki) in assay [6] (Ki (nM), competitive inhibitors) of 30 to 430 nM. In assay [1], the “mechanism of ATX inhibition” value is reported as “competitive”, the “potency relative to the lead compound” value was “at least as potent as the lead compound” and the “Inhibition Mechanism” value is reported as “Competitive”. Also, in assay [2], the “% Response at 10 μM (FS-3)” value is listed as 34.1 ± 3.0% and the inhibition at 10 µM is at least 50%. Also, inhibition in assay [2] (FS-3 substrate) was half-maximal at 4.4 ± 1.5 µM (IC50). In assay [2] (Substrate FS-3 (1 μM)), this compound returned a 50% inhibitory concentration (IC50) of 4.4 ± 1.5 µM. Besides, the “effect on activity of NPP7” value in assay [3] is “None of the compounds affected the activity”. Moreover, the “effect on activity of NPP6” value in assay [4] is listed as “None of the compounds affected the activity”.

Take `CCn1cc(C(=O)O)c(=O)c2cnc(N3CCN(C(=S)Nc4cc(Cl)ccc4Cl)CC3)nc21` [Compound 20, 2-(4-{[(2,5-dichlorophenyl)amino]carbonothioyl}-1-piperazinyl)-8-ethyl-5-oxo-5,8-dihydropyrido[2,3-d]pyrimidine-6-carboxylic acid]: the “effect on activity of NPP7” value in assay [3] is reported as “None of the compounds affected the activity”. Besides, in assay [4], the “effect on activity of NPP6” value is “None of the compounds affected the activity”. Besides, in assay [5], the ATX-stimulated cell migration entry is “appeared to decrease”, the “LPC+ATX-stimulated cell migration” value is recorded as “appeared to decrease” and the LPC-stimulated cell migration result was “appeared to decrease”.

On to `CCn1cc(C(=O)O)c(=O)c2cnc(N3CCN(C(=S)Nc4cc(C)cc(C)c4)CC3)nc21` [Compound 22, 2-(4-{[(3,5-dimethylphenyl)amino]carbonothioyl}-1-piperazinyl)-8-ethyl-5-oxo-5,8-dihydropyrido[2,3-d]pyrimidine-6-carboxylic acid], for which the inhibition constant (Ki) in assay [6] (Ki) lay within 1700 to 13500 nM. Also, the Ki in assay [6] (setting [7]) worked out at 9000 nM. For the same compound, in assay [1], the “mechanism of ATX inhibition” value is listed as “mixed-mode”, the “potency relative to the lead compound” value is listed as “as potent as or significantly less potent than the lead” and the “Inhibition Mechanism” value was “Mixed”. Moreover, in assay [2], the “% Response at 10 μM (FS-3)” value stood at 30.4 ± 1.3% and the inhibition at 10 µM is at least 50%. For the same compound, the concentration for half-maximal inhibition (IC50) in assay [2] (FS-3 substrate) amounted to 9 µM. Besides, the “effect on activity of NPP7” value in assay [3] is listed as “None of the compounds affected the activity”. For the same compound, in assay [4], the “effect on activity of NPP6” value was “None of the compounds affected the activity”.

On to `CCn1cc(C(=O)O)c(=O)c2cnc(N3CCN(C(=S)Nc4ccc(Cl)cc4)CC3)nc21` [Compound 28, 2-(4-{[(4-chlorophenyl)amino]carbonothioyl}-1-piperazinyl)-8-ethyl-5-oxo-5,8-dihydropyrido[2,3-d]pyrimidine-6-carboxylic acid], for which, in assay [6] (Ki), the Ki lay within 1700 to 13500 nM. This compound also showed an inhibitory constant (Ki) in assay [6] (setting [7]) of 10700 nM. In assay [1], the “mechanism of ATX inhibition” value is “mixed-mode”, the “potency relative to the lead compound” value is on record as “as potent as or significantly less potent than the lead” and the “Inhibition Mechanism” value was “Mixed”. Besides, in assay [2], the “% Response at 10 μM (FS-3)” value stood at 42.4 ± 0.9%; the “single dose response comparison” value is on record as 42.4 ± 0.9; the inhibition at 10 µM is at least 50%. Also, the concentration for half-maximal inhibition (IC50) in assay [2] (FS-3 substrate) was found to be 10.7 µM. Further, in assay [3], the “effect on activity of NPP7” value is reported as “None of the compounds affected the activity”. The “effect on activity of NPP6” value in assay [4] is “None of the compounds affected the activity”.

In assay [6] (setting [7]), `CCn1cc(C(=O)O)c(=O)c2cnc(N3CCN(C(=S)Nc4ccc(C(F)(F)F)cc4)CC3)nc21` [Compound 31, 2-(4-{[(4-trifluoromethylphenyl)amino]carbonothioyl}-1-piperazinyl)-8-ethyl-5-oxo-5,8-dihydropyrido[2,3-d]pyrimidine-6-carboxylic acid] came in with a Ki of 1400 nM. For the same compound, in assay [1], the “mechanism of ATX inhibition” value was “uncompetitive”, the “potency relative to the lead compound” value is “at least as potent as the lead compound; also recorded: approximately equivalent to the lead” and the “Inhibition Mechanism” value is on record as “Uncompetitive”. In assay [2], the “% Response at 10 μM (FS-3)” value is 36.2 ± 0.9%; the “single dose response comparison” value is listed as 36.2 ± 0.9; the inhibition at 10 µM is at least 50%. The compound also yielded an IC50 in assay [2] (FS-3 substrate) of 1.5 µM. Moreover, the IC50 in assay [2] (Substrate FS-3 (1 μM)) was determined as 1.5 µM. In addition, in assay [3], the “effect on activity of NPP7” value was “None of the compounds affected the activity”. Further, the “effect on activity of NPP6” value in assay [4] is “None of the compounds affected the activity”.
